The values that follow come from patent US20100324123A1, “GLMS RIBOSWITCHES, STRUCTURE-BASED COMPOUND DESIGN WITH GLMS RIBOSWITCHES, AND METHODS AND COMPOSITIONS FOR USE OF AND WITH GLMS RIBOSWITCHES” (Yale University, priority 2006, published 2010).

Data set [1] concerns glmS ribozyme. The experiment in a line: activity by electrophoretic in-line probing (gel electrophoresis methods). The format is binding.
The subject of data set [2] is glmS ribozyme. The experiment in a line: high-throughput fluorescence screen with bimolecular glmS ribozyme (fluorescein/cy3-labeled substrate). It is filed as biochemical, S. aureus. The note with it: for Fl21 h/Flg h: high-throughput fluorescence screen, fluorescence ratio.
The target in data set [3] is homologous ribozyme from Bacillus subtilis. The note with it: Bacillus subtilis glmS ribozyme; read-out: apparent dissociation constant (KD); cited from earlier work.
The target of data set [4] is glmS ribozyme from B. cereus. The note with it: read-out: apparent dissociation constant (KD); cited from earlier work.
For data set [5], the system named is glmS ribozyme from B. cereus. The experiment in a line: glmS ribozyme self-cleavage assay (5'-32P-labeled 200-nucleotide construct, PAGE). It is filed as biochemical, Bacillus cereus. To be noted: for ribozyme activation / self-cleavage (in words): FIG. 2b: 1 mM effector, 30 minutes, FIG. 2c: 100 μM, 50 mM HEPES pH 7.5; for ribozyme self-cleavage activity as fraction of the activity exhibited by GlcN6P: FIG. 2c, each at 100 μM. How it is done: Differences from GlcN6P can be seen by comparing the structures to GlcN6P. b) Yields of ribozyme cleavage assays using a 200-nucleotide glmS RNA construct incubated with GlcN6P (1) or with various compounds as indicated. 5′ ^32P-labeled precursor (Pre) RNAs were incubated for 30 minutes in the presence of 1 mM effector as noted for each lane. […] Rate constants for the remaining compounds are estimated to be less than 0.001 min^−1.
The molecular recognition characteristics of the glmS ribozyme was found by determining the effects of GlcN6P and various GlcN6P analogs on the self-cleavage activity of a 200-nucleotide glmS ribozyme construct from B. cereus (FIG. 1). KD values for each ligand were determined by plotting ribozyme rate constants versus ligand concentrations (Experimental Section). […] The amine group of the ligand is also known to be essential for ribozyme function (Winkler 2004; McCarthy 2005). […] Therefore, a series of analogs were tested (FIG. 2) to probe the importance of structural conformation of GlcN6P and of individual functional groups on the pyranose ring.
The glmS ribozyme from B. cereus (FIG. 1a) was generated by in vitro transcription as described previously, (Roth 2006) 5′-^32P-radiolabeled, (Lim 2006) and purified by PAGE. Rate constants were established using methods and reaction conditions similar to those described previously (Roth 2006) with the exception that reaction mixtures contained 50 mM HEPES buffer (pH 7.5 at 23° C.) in place of Tris-HCl buffer. Ligand concentrations and incubation times used are defined for each assay. Ribozyme activity was established by quantitating the amounts of cleaved and uncleaved RNAs using a Typhoon imager (Amersham Biosciences).

The test system of a further data set is glmS ribozymes. To be noted: cited from earlier work.

Entries after “also recorded” stand apart in the source; their conditions may differ.

Regarding `CC(=O)N[C@H]1C(O)O[C@H](COP(=O)(O)O)[C@@H](O)[C@@H]1O` (stereo partly drawn) [AcNGln 6P, N-acetyl-D-glucosamine 6-phosphate], the “Activity by electrophoretic in-line probing” value with glmS ribozyme [1] is “Weakly”. The “Fl21 h/Flg h” value in the data set on glmS ribozyme [2] turned out to be 2.28.

Turning to `N[C@H]1C(O)O[C@H](COP(=O)(O)O)[C@@H](O)[C@@H]1O` (stereo partly shown) [Compound 1, glucosamine-6-phosphate, reference compound], the “Activity by electrophoretic in-line probing” value in the data set with glmS ribozyme [1] is on record as “Yes”. In addition, the Kd in data set [3] and in data set [4] was around 200 µM in each case. Further, the “Fl21 h/Flg h” value in the data set on glmS ribozyme [2] turned out to be 3.36. The “increase of fluorescence intensity of fluoroscein” value with glmS ribozyme [2] (~160 μM glucosamine-6-phosphate, minimum of 10 hours incubation) is given as around 4 fold.

Turning to `N[C@@H](C=O)[C@@H](O)[C@@H](O)[C@H](O)COP(=O)(O)O` [Compound 2, 2-amino-2-deoxy-D-galactose 6-phosphate], the “ribozyme activation / self-cleavage (in words)” value in data set [5] is listed as “does not induce activity”. Also, the “Fl21 h/Flg h” value in the data set on glmS ribozyme [2] worked out at 1.69.

With `N[C@@H](CO)[C@@H](O)[C@H](O)[C@H](O)COP(=O)(O)O` [Compound 3, 2-amino-2-deoxy-D-glucitol-6-phosphate], the “Activity by electrophoretic in-line probing” value in the data set with glmS ribozyme [1] is reported as “No”. Also, in data set [5], the “ribozyme activation / self-cleavage (in words)” value was “no detectable activity”. The “Fl21 h/Flg h” value in the data set with glmS ribozyme [2] is 0.80.

On to `NC1C(O)O[C@H](COP(=O)(O)S)C(O)[C@@H]1O` (stereo partly drawn) [Compound 4, 2-amino-2-deoxy-D-glucose 6-thiophosphate], for which the “Activity by electrophoretic in-line probing” value in the data set with glmS ribozyme [1] is recorded as “No”. In data set [5], the “reduction of the rate constant of ribozyme cleavage compared to 1” value is recorded as “approximately two orders of magnitude”. In the data set on glmS ribozyme [2], the “Fl21 h/Flg h” value worked out at 1.11.

`CO[C@@H]1O[C@H](COP(=O)(O)O)[C@@H](O)[C@H](O)[C@H]1N` [Compound 5, methyl 2-amino-2-deoxy-β-D-glucose 6-phosphate]: in the data set on glmS ribozyme [1], the “Activity by electrophoretic in-line probing” value was “No”. Besides, the “ribozyme activation / self-cleavage (in words)” value in data set [5] is “precludes analog binding”. In addition, the “Fl21 h/Flg h” value in the data set on glmS ribozyme [2] amounted to 1.02.

As for `CO[C@H]1O[C@H](COP(=O)(O)O)[C@@H](O)[C@H](O)[C@H]1N` [Compound 6, methyl 2-amino-2-deoxy-α-D-glucose 6-phosphate], the “Activity by electrophoretic in-line probing” value in the data set with glmS ribozyme [1] is recorded as “No”. For the same compound, in data set [5], the “ribozyme activation / self-cleavage (in words)” value is “precludes analog binding”. Further, the “Fl21 h/Flg h” value with glmS ribozyme [2] is reported as 1.07.

For `NC1O[C@H](COP(=O)(O)O)[C@@H](O)[C@H](O)[C@H]1O` (stereo partly shown) [Compound 7, 1-amino-1-deoxyglucose 6-phosphate], the “Activity by electrophoretic in-line probing” value with glmS ribozyme [1] is on record as “No”. The “ribozyme activation / self-cleavage (in words)” value in data set [5] was “does not support ribozyme cleavage; also recorded: lowest amount of cleavage”. The “Fl21 h/Flg h” value in the data set with glmS ribozyme [2] was determined as 1.00.

On to `N[C@H]1CO[C@H](COP(=O)(O)O)[C@@H](O)[C@@H]1O` [Compound 8, 2-amino-1,5-anhydro-2-deoxyglucitol 6-phosphate], for which the melting point – broadly, the temperature, or range, at which the solid turns liquid – was 185 to 187 °C (dec.). Also, in the data set on glmS ribozyme [1], the “Activity by electrophoretic in-line probing” value is “Yes”. Moreover, the “ribozyme self-cleavage activity as fraction of the activity exhibited by GlcN6P” value in data set [5] was 1/70. For the same compound, the “Fl21 h/Flg h” value in the data set with glmS ribozyme [2] is 2.52.

As to `CNC1C(O)O[C@H](COP(=O)(O)O)C(O)[C@@H]1O` (stereo partly shown) [Compound 9, 2-methylamino-2-deoxyglucose 6-phosphate], the melting point is 185 to 187 °C (dec.). For the same compound, the “Activity by electrophoretic in-line probing” value in the data set with glmS ribozyme [1] was “Yes”. Also, the “ribozyme activation / self-cleavage (in words)” value in data set [5] was “only a modest reduction in efficiency compared to GlcN6P”. In addition, the “Fl21 h/Flg h” value with glmS ribozyme [2] stood at 3.49.

Regarding `N[C@H](C=O)[C@@H](O)[C@H](O)[C@H](O)COP(=O)(O)O` [Compound 12, 2-amino-2-deoxy-D-mannose 6-phosphate], in the data set with glmS ribozyme [1], the “Activity by electrophoretic in-line probing” value is “Yes”. Also, in data set [5], the “ribozyme self-cleavage activity as fraction of the activity exhibited by GlcN6P” value is given as 1/35. The “Fl21 h/Flg h” value in the data set on glmS ribozyme [2] amounted to 2.89.

Regarding `NC1C(O)O[C@H](COP(=O)(O)O)C(O)[C@H]1O` (stereo partly shown) [Compound 13, 2-amino-2-deoxyallose 6-phosphate], the “ribozyme activation / self-cleavage (in words)” value in data set [5] is recorded as “activity that is similar to GlcN6P”.

As to `N[C@@H]1[C@@H](O)[C@H](O)[C@@H](COP(=O)(O)O)O[C@@H]1O` [Gln6P com, reference compound], the “Activity by electrophoretic in-line probing” value in the data set with glmS ribozyme [1] was “Yes”. Moreover, the “Fl21 h/Flg h” value with glmS ribozyme [2] was 2.24.

On to `Cl.N[C@H]1C(O)O[C@H](CO)[C@@H](O)[C@@H]1O` (stereo partly drawn) [Gln com, D-(+)-glucosamine hydrochloride, reference compound], for which the “Activity by electrophoretic in-line probing” value in the data set on glmS ribozyme [1] is reported as “Yes”. In addition, the “Fl21 h/Flg h” value in the data set with glmS ribozyme [2] was 1.87. For the same compound, the “GlcN6P bound by the ribozyme more tightly than glucosamine” value with glmS ribozymes was above 1000 fold. Besides, the “loss of ligand affinity (in words)” value in the data set with glmS ribozymes (removal of the phosphate group) is “an even greater loss of ligand affinity”.

As for `C[N+](C)(C)C1C(O)O[C@H](COP(=O)(O)O)C(O)[C@@H]1O` (stereo partly shown) [Me3N-Gln 6P, 2-(trimethylammonio)-2-deoxyglucose 6-phosphate], the melting point was 185 to 187 °C (dec.).

Turning to `C[N+](C)(C)[C@@H](C=O)[C@@H](O)[C@H](O)[C@H](O)CO` [Me3N-Gln, 2-deoxy-2-(trimethylammonio)-D-glucose], in the data set with glmS ribozyme [1], the “Activity by electrophoretic in-line probing” value is recorded as “No”. Besides, the “Fl21 h/Flg h” value with glmS ribozyme [2] is 1.17.

As for `NCCO` [ethanolamine], the “ribozyme activation (in words)” value with glmS ribozymes is “orders of magnitude less effective than GlcN6P”.

For the compound `N[C@H]1C(O)O[C@H](COS(=O)(=O)O)[C@@H](O)[C@@H]1O` (stereo partly shown) [glucosamine-6-sulphate], in the data set with glmS ribozymes, the “concentration needed to induce ribozyme activation to the same extent as GlcN6P, relative to GlcN6P” value is reported as around 100 fold.

For `O=C[C@H](O)[C@@H](O)[C@H](O)[C@H](O)COP(=O)(O)O` [glucose-6-phosphate], the “ribozyme activation (in words)” value in the data set on glmS ribozymes was “completely fails to trigger ribozyme action”.

`NC(CO)CO` [serinol]: in the data set with glmS ribozymes, the “ribozyme activation (in words)” value is on record as “orders of magnitude less effective than GlcN6P”.
